According to PMC5074515 (PLoS ONE, 2016):
In brackets after ≈: the same amount, converted by molar mass. Counter-ions that a name gives are not always drawn. Like-named read-outs stand apart in the source and are kept apart here.

Experiments:
Mtb FtsZ = Mtb FtsZ (Mycobacterium tuberculosis, UniProt P9WN95); experiment: biochemical; format: biochemical
Mtb H37Ra (ATCC 25177) = experiment: In vitro screen versus Mtb H37Ra (Alamar blue microdilution broth assay, MIC99); format: cell-based, M. tuberculosis; settings: Mycobacterium tuberculosis
Procedure: The initial screening set and selected other compounds were tested for their inhibitory activity against Mtb H37Ra (ATCC 25177) and MAC NJ211 strains. Screening was performed at 1.28 and 12.8 μg/mL in Middlebrook 7H9 broth supplemented with 0.2% glycerol and ADC enrichment using a colorimetric (Alamar blue) microdilution broth assay by reported methods.[15]

MAC NJ211 = experiment: In vitro screen versus MAC NJ211 (Alamar blue microdilution broth assay, MIC99); format: cell-based; settings: read-out: MAC NJ211 MIC99
Mtb H37Rv = experiment: In vitro qHTS assay against Mtb H37Rv (IC90); format: cell-based, M. tuberculosis; settings: for IC90: read-out: Mtb H37Rv IC90
[1] = mean ± standard deviation, at least three times per assay, NA = not active up to 100 μM, read-out: Mtb FtsZ Polymerization IC50
[2] = lowest drug concentration that completely inhibited growth, read-out: Mtb H37Ra MIC99
[3] = Mycobacterium tuberculosis, H37RV, concentration that inhibits bacterial growth by 90%
[4] = same MIC99 given in μM, read-out: Mtb H37Ra MIC99 (concentration in μM in parentheses)
[5] = lowest drug concentration that completely inhibited growth
[6] = concentration that inhibits bacterial growth by 90%

Mtb FtsZ, sequence (P9WN95 whole entry): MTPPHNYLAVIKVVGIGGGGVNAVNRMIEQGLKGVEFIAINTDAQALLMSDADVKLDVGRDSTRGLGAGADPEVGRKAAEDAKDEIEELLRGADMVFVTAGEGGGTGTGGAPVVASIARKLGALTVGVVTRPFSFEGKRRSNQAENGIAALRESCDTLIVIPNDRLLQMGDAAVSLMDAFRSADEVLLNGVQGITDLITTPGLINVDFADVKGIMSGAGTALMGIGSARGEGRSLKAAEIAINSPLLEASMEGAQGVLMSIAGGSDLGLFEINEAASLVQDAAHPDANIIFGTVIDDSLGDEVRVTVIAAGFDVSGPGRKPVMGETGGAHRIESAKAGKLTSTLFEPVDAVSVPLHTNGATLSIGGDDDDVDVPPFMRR

| Compound | IC50 (Mtb FtsZ; [1]) | MIC99 (Mtb H37Ra (ATCC 25177); [2]) | IC90 (Mtb H37Rv; [3]) | MIC99 (MAC NJ211; [5]) | melting point | other results |
| --- | --- | --- | --- | --- | --- | --- |
| COc1cc(/C=C(\C#N)C(N)=O)cc(CSc2nc3ccccc3s2)c1O [Compound 15, AG-825] | 31.7 ± 1.7 µM | – | – | – | – | – |
| O=c1c(O)c(-c2cc(O)c(O)c(O)c2)oc2cc(O)cc(O)c12 [Compound 4, Myrcetin] | – | > 128 µg/mL | – | – | – | IC50 (Mtb FtsZ): 42.4 ± 6.3 µM; MIC99 (MAC NJ211): > 128 µg/mL |
| CSc1ccc(/C=C2/C(C)=C(CC(=O)N(C)CCN(C)C)c3cc(F)ccc32)cc1 [Compound 19, (Z)-N-(2-(Dimethylamino)ethyl)-2-(5-fluoro-2-methyl-1-(4-(methylthio)benzylidene)-1H-inden-3-yl)-N-methylacetamide] | 42.3 ± 6 µM | 16 µg/mL | 6.67 ± 0.14 µM | – | – | – |
| O=C(O)c1cc(O)c2c(c1)C(=O)c1cccc(O)c1C2=O [Compound 2, Rhein] | – | 32 µg/mL | – | > 128 µg/mL | – | IC50 (Mtb FtsZ): 44.6 ± 6.3 µM; MIC99 (Mtb H37Ra (ATCC 25177); [4]): 113 µM |
| COc1cc2c(cc1O)CC[n+]1cc3cc(OC)c(OC)cc3cc1-2 [Compound 9, Pseudojatrorrhizine] | 105 ± 32 µM | > 64 µg/mL | – | 64 µg/mL | – | – |
| CC(C)c1c(O)ccc2c1CC[C@H]1C(C)(C)CCC[C@]21C [Compound 13, Totarol] | 47.5 ± 4.9 µM | 25 µg/mL | – | 25 µg/mL (≈ 87.3 µM) | – | MIC99 (Mtb H37Ra (ATCC 25177); [4]): 87.3 µM |
| CSc1ccc(/C=C2/C(C)=C(CCNCCN3CCCCC3)c3cc(F)ccc32)cc1 [Compound 60, (Z)-2-(5-Fluoro-2-methyl-1-(4-(methylthio)benzylidene)-1H-inden-3-yl)-N-(2-(piperidin-1-yl)ethyl)ethanamine] | – | 2 µg/mL | – | – | – | MIC99 (MAC NJ211): 8 µg/mL (≈ 18.3 µM); fold more active against Mtb H37Rv than corresponding analog (Mtb H37Rv; 48 vs 23, 57 vs 56, 60 vs 24): 1.6 fold; IC90 (Mtb H37Rv; Mycobacterium tuberculosis, H37RV): 0.88 ± 0.01 µM |
| CSc1ccc(/C=C2/C(C)=C(CC(=O)N3CCC[C@H]3CN3CCCC3)c3cc(F)ccc32)cc1 [Compound 29, (S,Z)-2-(5-Fluoro-2-methyl-1-(4-(methylthio)benzylidene)-1H-inden-3-yl)-1-(2-(pyrrolidin-1-ylmethyl)pyrrolidin-1-yl)ethanone] | – | – | 4.06 ± 0.03 µM | – | 101 to 104 °C | – |
| CNCCN(C)C(=O)CC1=C(C)/C(=C/c2ccc(SC)cc2)c2ccc(F)cc21 [Compound 23, (Z)-2-(5-Fluoro-2-methyl-1-(4-(methylthio)benzylidene)-1H-inden-3-yl)-N-methyl-N-(2-(methylamino)ethyl)acetamide] | 34.9 ± 7 µM | 8 µg/mL | 8.28 ± 0.33 µM | – | – | – |
| CSc1ccc(/C=C2/C(C)=C(CC(=O)N3CCN(CCCN(C)C)CC3)c3cc(F)ccc32)cc1 [Compound 31, (Z)-1-(4-(3-(Dimethylamino)propyl)piperazin-1-yl)-2-(5-fluoro-2-methyl-1-(4-(methylthio)benzylidene)-1H-inden-3-yl)ethanone] | – | – | 9.55 ± 0.31 µM | – | 131 to 134 °C | – |
| CCN(CC)CCCNC(=O)CC1=C(C)/C(=C/c2ccc(SC)cc2)c2ccc(F)cc21 [Compound 21, (Z)-N-(3-(Diethylamino)propyl)-2-(5-fluoro-2-methyl-1-(4-(methylthio)benzylidene)-1H-inden-3-yl)acetamide] | – | – | 4.36 ± 0.07 µM | – | 78 to 81 °C | – |
| CN(C)[C@@H]1C(O)=C(C(N)=O)C(=O)[C@@]2(O)C(O)=C3C(=O)c4c(O)cccc4[C@@](C)(O)[C@H]3C[C@@H]12 [Compound 5, Tetracycline] | – | 1 µg/mL | – | – | – | IC50 (Mtb FtsZ): 87.1 ± 10.7 µM |
| CSc1ccc(/C=C2/C(C)=C(CC(=O)NCCCN3CCCCC3C)c3cc(F)ccc32)cc1 (stereo not drawn) [Compound 25, (Z)-2-(5-Fluoro-2-methyl-1-(4-(methylthio)benzylidene)-1H-inden-3-yl)-N-(3-(2-methylpiperidin-1-yl)propyl)acetamide] | – | – | 5.41 ± 0.11 µM | – | 84 to 86 °C | – |
| CSc1ccc(/C=C2/C(C)=C(CCNCc3ccccc3)c3cc(F)ccc32)cc1 [Compound 58] | – | 2 µg/mL | 2.07 ± 0.01 µM | 4 µg/mL (≈ 9.63 µM) | – | – |
| Oc1ccc(Cl)cc1Cc1cc(Cl)cc(Cc2cc(Cl)ccc2O)c1O [Compound 17, Zantrin Z1] | – | 8 µg/mL | – | 16 µg/mL (≈ 39.1 µM) | – | – |
| CSc1ccc(/C=C2/C(C)=C(CCNCc3ccco3)c3cc(F)ccc32)cc1 [Compound 59, (Z)-2-(5-Fluoro-2-methyl-1-(4-(methylthio)benzylidene)-1H-inden-3-yl)-N-(furan-2-ylmethyl)ethanamine] | – | 4 µg/mL | 1.69 ± 0.06 µM | 8 µg/mL (≈ 19.7 µM) | – | – |
| Nc1nonc1C(=O)N/N=C/c1cc(Cl)cc(Cl)c1O [Compound 12, ChemBridge 5481893] | 33.4 ± 3 µM | 64 µg/mL | – | > 64 µg/mL | – | MIC99 (Mtb H37Ra (ATCC 25177); [4]): 202 µM |
| CC1=C(CC(=O)N2CCC[C@H]2CN2CCCC2)c2cc(F)ccc2/C1=C\c1nc2ccccc2s1 [Compound 43, (S,Z)-2-(1-(Benzo[d]thiazol-2-ylmethylene)-5-fluoro-2-methyl-1H-inden-3-yl)-1-(2-(pyrrolidin-1-ylmethyl)pyrrolidin-1-yl)ethanone] | – | – | 3.68 ± 0.11 µM | – | 79 to 81 °C | – |
| CSc1ccc(/C=C2/C(C)=C(CC(=O)NCc3ccccc3)c3cc(F)ccc32)cc1 [Compound 34, (Z)-N-Benzyl-2-(5-fluoro-2-methyl-1-(4-(methylthio)benzylidene)-1H-inden-3-yl)acetamide] | – | – | > 100 µM | – | 171 to 174 °C | Mtb H37Rv IC90 (Mtb H37Rv; [6]): inactive |
| CCN(CC)CCNc1nc(/C=C/c2ccc(Cl)cc2)nc2cc3ccccc3cc12 [Compound 16, Zantrin Z3] | – | 1 µg/mL | – | 2 µg/mL (≈ 4.64 µM) | – | – |
| CC[C@@H](CO)NCCN[C@@H](CC)CO [Ethambutol] | – | 2 to 4 µg/mL | – | 4 to 8 µg/mL (≈ 19.6 to 39.2 µM) | – | – |
| CSc1ccc(/C=C2/C(C)=C(CC(=O)NCCN3CCCC3)c3cc(F)ccc32)cc1 [Compound 26, (Z)-2-(5-Fluoro-2-methyl-1-(4-(methylthio)benzylidene)-1H-inden-3-yl)-N-(2-(pyrrolidin-1-yl)ethyl)acetamide] | 33.5 ± 5.9 µM | 8 µg/mL | 3.04 ± 0.04 µM | – | 106 to 108 °C | – |
| O=c1c(O)c(-c2ccc(O)c(O)c2)oc2cc(O)cc(O)c12 [Compound 3, Quercetin dihydrate] | – | > 128 µg/mL | – | – | – | IC50 (Mtb FtsZ): 21.7 ± 4.8 µM; MIC99 (MAC NJ211): > 128 µg/mL |
| CN(C)c1ccc(O)c2c1C[C@H]1C[C@H]3[C@H](N(C)C)C(O)=C(C(N)=O)C(=O)[C@@]3(O)C(O)=C1C2=O [Compound 6, Minocycline] | – | ≤ 0.5 µg/mL | – | – | – | IC50 (Mtb FtsZ): 37.3 ± 4.6 µM |
| CCN1CCC[C@H]1CNC(=O)CC1=C(C)/C(=C/c2nc3ccccc3s2)c2ccc(F)cc21 [Compound 42, (S,Z)-2-(1-(Benzo[d]thiazol-2-ylmethylene)-5-fluoro-2-methyl-1H-inden-3-yl)-N-((1-ethylpyrrolidin-2-yl)methyl)acetamide] | – | – | 5.46 ± 0.12 µM | – | 168 to 171 °C | – |
| COc1cc2c(c(OC)c1OC)-c1ccc(OC)c(=O)cc1[C@@H](NC(C)=O)CC2 [Compound 1, Colchicine] | – | – | – | > 64 µg/mL | – | MIC99 (Mtb H37Ra (ATCC 25177); read-out: Mtb H37Ra MIC99): > 64 µg/mL |
| CSc1ccc(/C=C2/C(C)=C(CC(=O)NCc3ccc(N(C)C)cc3)c3cc(F)ccc32)cc1 [Compound 35, (Z)-N-(4-(Dimethylamino)benzyl)-2-(5-fluoro-2-methyl-1-(4-(methylthio)benzylidene)-1H-inden-3-yl)acetamide] | 22.9 ± 4.8 µM | 64 µg/mL | > 100 µM | – | 174 to 177 °C | inhibition at 50 µM (Mtb H37Rv; Mycobacterium tuberculosis, H37RV, at 50 μM): 82%; Mtb H37Rv IC90 (Mtb H37Rv; [6]): inactive |
| CCN(CC)CCNC(=O)CC1=C(C)/C(=C/c2ccc(SC)cc2)c2ccc(F)cc21 [Compound 20, (Z)-N-(2-(Diethylamino)ethyl)-2-(5-fluoro-2-methyl-1-(4-(methylthio)benzylidene)-1H-inden-3-yl)acetamide] | – | – | 3.59 ± 0.06 µM | – | 98 to 100 °C | – |
| CC/C(=C(\c1ccccc1)c1ccc(OCCN(C)C)cc1)c1ccccc1 [Compound 11, Tamoxifen citrate] | – | – | – | 32 µg/mL | – | – |
| CSc1ccc(/C=C2/C(C)=C(CC(=O)N(C)CCN(C)C(=O)C(N)C(C)C)c3cc(F)ccc32)cc1 (stereo not drawn) [Compound 56, (Z)-2-Amino-N-(2-(2-(5-fluoro-2-methyl-1-(4-(methylthio)benzylidene)-1H-inden-3-yl)-N-methylacetamido)ethyl)-N,3-dimethylbutanamide] | 38 ± 6.3 µM | 8 µg/mL | 4.34 ± 0.06 µM | – | – | – |
